Consider twelve molecules from patent publication US6410561B1, “Amide derivatives and nociceptin antagonists” (Japan Tobacco Inc., priority 1998, dated 2002).

Like-named read-outs stand apart in the source and are kept apart here.

As a reminder, the melting point is the temperature of the solid-liquid transition. What is called Ki is a measure of affinity in units of concentration, obtained from inhibition or displacement. The IC50 is the concentration needed to halve the response being measured. Higher therefore signals weaker potency.

The subject of one data set is allodynia model. Description: Allodynia test (intrathecal nociceptin, tactile stimulation). The data set is classed as in vivo, Mice. Conditions: Mus musculus, read-out: Allodynia M.E.D. (minimum effective dose). The method, then:
Mice (Crj, ICR, 4-week-old, male) were intrathecally administered with nociceptin (50 pg/5 μl) without anesthesia. For 20 min after administration and at 5 min intervals, an area from lateral region to tail of the mice was rubbed with a brush and the response of the mice was observed. The evaluation followed the criteria of 0; no change, 1; run or cry upon tactile stimulation, and 2; cry loud or dash away upon tactile stimulation. The test compound was suspended in a 0.5% MC solution and orally administered 60 min before nociceptin administration. The significant difference of the score of each administration group at 20 min after nociceptin administration from the group administered with solvent was analyzed with Mann-Whitny U-test.

Another data set concerns the target T1, μ receptor (Rattus norvegicus, UniProt P33535).
T1 construct: Rat cerebrum membrane standard sample; from tissue; host or cells: rat cerebrum membranes
Put plainly: μ receptor binding assay ([3H]DAMGO). To be noted: for Ki: calculated from IC50 and Kd of [3H]DAMGO; for IC50: rat cerebrum membrane, [3H]DAMGO 1 nM. The protocol:
Rat cerebrum membrane standard sample (final concentration 0.755 mg·protein/ml), [^3H]DAMGO (Try-D-Ala-Gly-NMe-Phe-Gly-ol) [diluted with Tris buffer (50 mM Tris-HCl, 0.1 mM p-APMSF, 2 mg/ml BSA (pH=7.4)) to a final concentration of 1 nM] and test compound (diluted with Tris buffer to a final concentration of 10 nM-10 μM) were mixed, and the mixture was incubated at room temperature for 90 min. The membrane was recovered on a G/F-B filter (same as above) using a cell harvester and the reaction was stopped. After washing 3 times, the filter was dried at 42° C. for 1 hr. A scintillation solution (same as above) was added and the radioactivity (same as above) was assayed.
The nonspecific binding was the binding in the presence of 10 μM naloxone and the difference between the total binding and nonspecific binding was taken as the specific binding. IC50 was calculated from inhibition of specific binding at each concentration of the compound, and Ki value of the test compound was calculated from this value and Kd value of [^3H]DAMGO.

The test system of a further data set is Mice. Put plainly: Hot-plate test. In kind it is in vivo. Conditions: Mus musculus, 1 h, oral, 60 min after administration, 55.5°C, read-out: Hot-plate M.E.D. (minimum effective dose). The protocol: Mice (Crj, ICR, 4-week-old, male) were placed on a hot-plate (temperature 55.5±0.5° C.) and the time until the mice jumped and tried to run away was recorded. The mice were grouped according to the time and body weight so that the groups were evenly membered. The test compound was suspended in a 0.5% methylcellulose (MC) solution and orally administered to mice. After 60 min, the mice were again placed on a hot-plate and the time until they licked the hindlimb or jumped and tried to run away was recorded. The significant difference from the group administered with solvent was analyzed with ANOVA followed by Dunnett two-tailed test.
For orientation: In hot-plate and tail-flick tests a longer latency is read as antinociception.

The next data set has as its target T2, ORL-1 receptor (Homo sapiens, UniProt P41146).
T2 construct: expressed in transfected cells
Put plainly: ORL1 receptor binding assay ([3H]nociceptin). Conditions: for Ki: calculated from IC50 and Kd of [3H]nociceptin; for IC50: membrane of human ORL-1 expression cells, [3H]nociceptin 0.5 nM. The method, then: ORL1 Receptor Binding Assay
A cell membrane suspension obtained from human ORL-1 expression cells was adjusted with Tris buffer [50 mM Tris, 2 mM EDTA, 0.1 mM (p-Amidinophenyl)methanesulfonyl Fluoride Hydrochloride (p-APMSF), 2 mg/ml BSA] to membrane protein amount of about 25 μg/ml (2.5 μg/well). This was mixed with [^3H]nociceptin (diluted with Tris buffer to a final concentration of 0.5 nM) and test compound (diluted with Tris buffer to a final concentration of 10 nM-10 μM), and the mixture was incubated at room temperature for 60 min. The membrane was recovered on a G/F-B filter (Packard, Unifilter 96GF/B) using a cell harvester and the reaction was stopped. After washing 3 times, the filter was dried at 42° C. for 1 hr. A scintillation solution (Packard, microscint-20) was added and the radioactivity (Packard, Top count A9912V) was assayed.
The nonspecific binding was the binding in the presence of 1 μM nociceptin and the difference between the total binding and nonspecific binding was taken as the specific binding. IC50 was calculated from inhibition of specific binding at each concentration of the compound, and Ki value of the test compound was calculated from this value and Kd value of [^3H]nociceptin.

Where [1] appears, read: mice, oral, 60 min before nociceptin 50 pg i.t., score at 20 min.

T1 sequence (P33535 whole entry): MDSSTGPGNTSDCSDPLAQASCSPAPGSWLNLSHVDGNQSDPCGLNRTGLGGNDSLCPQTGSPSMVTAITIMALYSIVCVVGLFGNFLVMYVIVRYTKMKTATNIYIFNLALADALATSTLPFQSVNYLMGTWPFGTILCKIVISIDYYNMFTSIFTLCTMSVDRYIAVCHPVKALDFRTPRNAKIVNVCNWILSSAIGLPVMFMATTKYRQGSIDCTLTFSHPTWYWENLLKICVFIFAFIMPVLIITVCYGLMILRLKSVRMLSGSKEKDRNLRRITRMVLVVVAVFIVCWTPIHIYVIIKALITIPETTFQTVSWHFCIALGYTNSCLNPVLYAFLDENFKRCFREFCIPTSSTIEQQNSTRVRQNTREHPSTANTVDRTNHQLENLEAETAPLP
T2 sequence (P41146 whole entry): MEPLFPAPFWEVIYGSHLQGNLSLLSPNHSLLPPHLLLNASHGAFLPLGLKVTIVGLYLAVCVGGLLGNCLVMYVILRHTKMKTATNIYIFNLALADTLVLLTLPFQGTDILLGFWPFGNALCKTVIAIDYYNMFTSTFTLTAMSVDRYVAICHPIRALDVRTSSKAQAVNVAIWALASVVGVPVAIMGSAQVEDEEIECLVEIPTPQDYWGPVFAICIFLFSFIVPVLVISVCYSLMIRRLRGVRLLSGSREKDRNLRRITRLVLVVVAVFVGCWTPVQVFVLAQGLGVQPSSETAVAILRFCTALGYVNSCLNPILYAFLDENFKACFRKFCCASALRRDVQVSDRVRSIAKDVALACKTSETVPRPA

`Cc1cc(N)c2cc(NC(=O)c3ccccc3COc3ccc(Cl)cc3Cl)ccc2n1.Cl` [Example 2, N-(4-amino-2-methyl-6-quinolyl)-2-[(2,4-dichlorophenoxy)methyl]benzamide hydrochloride] displayed a melting point of 262 °C. Further, in the data set with allodynia model (setting [1]), the minimal effective dose was determined as 0.3 mg/kg. For the same molecule, on μ receptor, the Ki is 497 nM and the IC50 amounted to 1330 nM. The minimal effective dose in the data set on Mice turned out to be 1 mg/kg. At ORL-1 receptor, the Ki is 4 nM and the IC50 came out at 70 nM.

`COc1ccc(OCc2ccccc2C(=O)Nc2ccc3nc(C)cc(N)c3c2)cc1.Cl` [Example 4, N-(4-amino-2-methyl-6-quinolyl)-2-[(4-methoxyphenoxy)methyl]benzamide hydrochloride] came in with a melting point of 276 °C. In the data set with allodynia model (po), the minimal effective dose is under 1 mg/kg. Further, at μ receptor, the Ki was 453 nM and the IC50 was 1260 nM. For the same molecule, the minimal effective dose in the data set on Mice is under 3 mg/kg.

In turn, `Cc1cc(N)c2cc(NC(=O)c3ccccc3COc3ccc([N+](=O)[O-])cc3)ccc2n1` [Example 7, N-(4-amino-2-methyl-6-quinolyl)-2-[(4-nitrophenoxy)methyl]benzamide] came in with a melting point of 148 °C. The minimal effective dose with allodynia model (setting [1]) amounted to 0.3 mg/kg. On μ receptor, the Ki is 346 nM and the IC50 was determined as 960 nM. In addition, the minimal effective dose in the data set on Mice was 3 mg/kg.

With `Cc1cc(N)c2cc(NC(=O)c3ccccc3COc3ccc(Cl)cc3)ccc2n1.Cl` [Example 11, N-(4-amino-2-methyl-6-quinolyl)-2-[(4-chlorophenoxy)methyl]benzamide hydrochloride], the melting point was 245 °C. The minimal effective dose in the data set with allodynia model (setting [1]) was 0.3 mg/kg. In addition, at μ receptor, the Ki was 424 nM and the IC50 amounted to 1120 nM. The minimal effective dose in the data set on Mice was determined as 3 mg/kg. Also, at ORL-1 receptor, the Ki is 3 nM and the IC50 was 60 nM.

Molecule `CC(=O)c1ccc(OCc2ccccc2C(=O)Nc2ccc3nc(C)cc(N)c3c2)cc1.Cl` [Example 12, N-(4-amino-2-methyl-6-quinolyl)-2-[(4-acetylphenoxy)methyl]benzamide hydrochloride] gave a melting point of 270 °C. For the same molecule, the minimal effective dose in the data set with allodynia model (setting [1]) turned out to be 0.3 mg/kg. At μ receptor, the Ki was 254 nM and the IC50 was found to be 670 nM. In the data set on Mice, the minimal effective dose was determined as 3 mg/kg. At ORL-1 receptor, the Ki is 8 nM and the IC50 amounted to 160 nM.

On to `Cc1cc(N)c2cc(NC(=O)c3ccccc3COc3ccc(C#N)cc3)ccc2n1.Cl` [Example 16, N-(4-amino-2-methyl-6-quinolyl)-2-[(4-cyanophenoxy)methyl]benzamide hydrochloride], for which the melting point turned out to be 286 °C. In addition, the minimal effective dose in the data set on allodynia model (setting [1]) worked out at 0.1 mg/kg. Besides, at μ receptor, the Ki is 259 nM and the IC50 amounted to 690 nM. Moreover, in the data set with Mice, the minimal effective dose was found to be 3 mg/kg. Besides, on ORL-1 receptor, the Ki is 6 nM and the IC50 came out at 110 nM.

Regarding `Cc1ccc(OCc2ccccc2C(=O)Nc2ccc3nc(C)cc(N)c3c2)cc1.Cl` [Example 17, N-(4-amino-2-methyl-6-quinolyl)-2-[(4-methylphenoxy)methyl]benzamide hydrochloride], the melting point came to 255 °C. Also, in the data set with allodynia model (po), the minimal effective dose turned out to be 0.3 mg/kg. Further, on μ receptor, the Ki was 385 nM and the IC50 stood at 1020 nM. Besides, in the data set on Mice, the minimal effective dose came out at 1 mg/kg. The IC50 on ORL-1 receptor was 130 nM.

Consider `Cc1cc(N)c2cc(NC(=O)c3ccccc3COc3cccc([N+](=O)[O-])c3)ccc2n1.Cl` [Example 19, N-(4-amino-2-methyl-6-quinolyl)-2-[(3-nitrophenoxy)methyl]benzamide hydrochloride], for which the melting point amounted to 245 °C. Moreover, the minimal effective dose in the data set on allodynia model (setting [1]) came out at 0.1 mg/kg. Besides, at μ receptor, the inhibition constant Ki was 388 nM and the IC50 came out at 1030 nM. The minimal effective dose in the data set on Mice turned out to be 3 mg/kg. Besides, at ORL-1 receptor, the Ki was 9 nM and the IC50 amounted to 160 nM.

`Cc1cc(N)c2cc(NC(=O)c3ccccc3COc3ccc(Cl)c(Cl)c3)ccc2n1.Cl` [Example 26, N-(4-amino-2-methyl-6-quinolyl)-2-[(3,4-dichlorophenoxy)methyl]benzamide hydrochloride] registered a melting point of 223 °C. Moreover, the minimal effective dose with allodynia model (setting [1]) turned out to be 0.3 mg/kg. In addition, on μ receptor, the Ki was 479 nM and the IC50 is 1220 nM. For the same molecule, in the data set with Mice, the minimal effective dose was 1 mg/kg. Besides, on ORL-1 receptor, the Ki was 4 nM and the IC50 was 80 nM.

Turning to `Cc1cc(N)c2cc(NC(=O)c3ccccc3COc3ccc(C(C)(C)C)cc3)ccc2n1.Cl` [Example 29, N-(4-amino-2-methyl-6-quinolyl)-2-[(4-tert-butylphenoxy)methyl]benzamide hydrochloride], the melting point worked out at 268 °C. Also, the minimal effective dose in the data set with allodynia model (setting [1]) is over 0.3 mg/kg. On μ receptor, the Ki was 414 nM and the IC50 turned out to be 1050 nM. Further, the minimal effective dose in the data set on Mice came to 3 mg/kg. On ORL-1 receptor, the Ki is 9 nM and the IC50 worked out at 160 nM.

The molecule `COc1ccc(CCc2ccccc2C(=O)Nc2ccc3nc(C)cc(N)c3c2)cc1.Cl` [Example 84] returned a melting point of 285 °C. Also, the minimal effective dose with allodynia model (setting [1]) was under 3 mg/kg. Besides, on μ receptor, the Ki was 419 nM and the IC50 turned out to be 1110 nM. Moreover, the minimal effective dose in the data set with Mice is over 10 mg/kg. On ORL-1 receptor, the Ki is 129 nM and the IC50 was determined as 2520 nM.

The molecule `CCc1ccc(OCc2ccccc2C(=O)Nc2ccc3nc(C)cc(N)c3c2)c(Cl)c1.Cl` [Example 89, N-(4-amino-2-methyl-6-quinolyl)-2-[(2-chloro-4-ethylphenoxy)methyl]benzamide hydrochloride] returned a melting point of 245.9 °C. Also, the minimal effective dose in the data set with allodynia model (setting [1]) was 0.3 mg/kg. At μ receptor, the Ki is 548 nM and the IC50 worked out at 1460 nM. Besides, in the data set on Mice, the minimal effective dose amounted to 1 mg/kg. For the same molecule, on ORL-1 receptor, the Ki was 6 nM and the IC50 was determined as 130 nM.
